Measured values published in patent US12622965B2, “Therapeutical tools and methods using temperature-sensitive receptors for treating blindness” (FRIEDRICH MIESCHER INSTITUTE FOR BIOMEDICAL RESEARCH, priority 2020, dated 2026).

Assays:
[1] = tested on: adult human ex vivo retinal explants; test: AAV transduction of adult human ex vivo retinal explants, quantified by immunofluorescence; format: cell-based; conditions: CAG promoter, mean±s.d
Description: Finally, the inventors provided NIR sensitivity to in a blind human retina. They targeted rTRPV1 to adult human ex vivo retinal explants, kept alive in culture for eight weeks post mortem. Cultured retinas lose light sensitivity after 16 hours. Using a CAG promoter, a density of 2477±889 rTRPV1 positive photoreceptors was achieved per mm^2 of explant tissue (mean±s.d). 94.5±4.2% of rTRPV1 positive cells were photoreceptors (n=2583 rTRPV1 positive cells mm^−2, n=2477 rTRPV1 positive photoreceptors mm^−2, mean±s.d).
Human retinal tissue was obtained after corneal tissue harvest from adult multi-organ donors with no reported history of eye disease, n=2 eyes from n=2 donors. […] Light responses were recorded from samples 8 weeks post-mortem. […]
A Zeiss LSM 700 laser scanning confocal microscope was used to acquire images of antibody stained cells and tissues with an EC Plan-Neofluar 40×/1.30 oil M27 objective at up to 4 excitation laser lines according to secondary antibody specification. Expression was assessed from 1024×1024 pixel images in a z-stack with 0.75 μm steps. […] AAV transduction was quantified from retinal wholemounts. […] Quantification was performed separately for outer nuclear layer, inner nuclear layer and ganglion cell layer.

[2] = tested on: human retina (ONL, INL, GCL cells); test: two-photon acousto-optic calcium imaging of NIR responses in ex vivo human retina; format: cell-based
Text: High-speed three-dimensional acousto-optic calcium imaging of neuronal network activity permits observation of response propagation from photoreceptors through the retina. To detect NIR light driven responses in the human retina, the inventors deposited nanorods (Abs 915 nm) over the photoreceptor side of the retina and performed two-photon calcium imaging of individual cells in the outer nuclear layer (ONL), which hosts photoreceptors, the inner nuclear layer (INL), which hosts horizontal, bipolar and amacrine cells, and the ganglion cell layer (GCL) which hosts ganglion and amacrine cells. To record calcium signals, the fluorescent calcium dye Oregon Green 488 BAPTA-1 (OGB-1) was electroporated into the cells. […] In cells of the INL and GCL layers, bidirectional changes in the calcium signal indicate activation of excitatory and inhibitory retinal pathways. More cells responded in the GCL than in the ONL, reflecting convergent retinal circuit organization (Chi Squared Test, P=0.0006; GCL, n=41 responding neurons, n=83 total neurons, 49.4%; ONL, n=16 responding photoreceptors, n=74 total photoreceptors, 21.6%). There was no significant difference in number of NIR light responding cells between INL and GCL (Chi Squared Test, P=0.89; INL, n=46 responding neurons, n=93 total neurons, 49.5%).
Human retinal tissue was obtained after corneal tissue harvest from adult multi-organ donors with no reported history of eye disease, n=2 eyes from n=2 donors. After cornea isolation, the iris, lens, and vitreous were removed and the retina was submerged in flowing Ames' medium (Sigma, A1420) saturated with 95% O2 and 5% CO2. […] Samples used for tissue culture were of mid-peripheral origin, midway between the fovea and the anterior retinal border. For organotypic retinal culture, 4×4 mm retinal pieces were isolated and placed photoreceptor-side-up on polycarbonate membranes inserts (Corning, 3412). The cultures were maintained at 37° C. and 5% CO2 in DMEM/F12 medium (Thermo Fisher Scientific), supplemented with 0.1% bovine serum albumin (BSA), 10 μM O-acetyl-L-carnitine hydrochloride, 1 mM fumaric acid, 0.5 mM galactose, 1 mM glucose, 0.5 mM glycine, 10 mM HEPES, 0.05 mM mannose, 13 mM sodium bicarbonate, 3 mM taurine, 0.1 mM putrescine dihydrochloride, 0.35 μM retinol, 0.3 μM retinyl acetate, 0.2 μM (+)-α-tocopherol, 0.5 mM ascorbic acid, 0.05 μM sodium selenite, 0.02 μM hydrocortisone, 0.02 μM progesterone, 1 μM insulin, 0.003 μM 3,3′,5-triiodo-L-thyronine, 2 000 U penicillin and 2 mg streptomycin (Sigma). For AAV infection, 40 μL of virus was applied per retinal explant 4-5 days after plating. The culture medium was renewed every 48 hours. Light responses were recorded from samples 8 weeks post-mortem. […]

[3] = nanorods (Abs 915 nm) on photoreceptor side, 8 weeks post-mortem

TRPV1.465-6x-His: rat TRPV1 channel with 6x-His epitope tag inserted in the first extracellular loop after amino acid 465; delivered by AAV
density of rTRPV1 positive photoreceptors ([1]; explant tissue): 2477±889 per mm^2
rTRPV1 positive cells that were photoreceptors [1]: 94.5±4.2%
NIR light responding cells in the GCL [2, 3]: 49.4%
NIR light responding cells in the INL [2, 3]: 49.5%
NIR light responding photoreceptors in the ONL [2, 3]: 21.6%
NIR light-evoked activation in retinal explants ([2]; rTRPV1 transduced explants (n=3), nanorods (Abs 915 nm)): NIR light-evoked activation could be detected
